The target in assay [1] is T1, human sodium channels Nav 1.8 (Homo sapiens, UniProt Q9Y5Y9).
T1 construct: expressed in transfected cells
Kind of assay: Automated whole-cell voltage-clamp (ScreenPatch 384P) sodium current block, Nav 1.8. As to conditions: CHO cells stably expressing human Nav 1.8; inactivation step -40 mV 8 s, test step 10 mV (TP1A); eight concentrations; exposure at least five minutes; room temperature; read-out: Nav1.8 IC50. The assay is classed as cell-based. The method, then:
(§1) Biological assays were performed on Chinese hamster ovary (CHO) cells that express human sodium channels Nav 1.8 or Nav 1.7 in a stable manner.
(§2) The experimental protocol voltage-clamp using the whole cell configuration was established on the automated ScreenPatch® 384P platform (SP384PE, Nanion Technologies, Livingston, NJ) and the results were recorded with a Nanion 384-well Patch Clamp chip (NPC) (Nanion Technologies, Livingston, NJ).
(§3) Formula I compounds were diluted in eight concentrations in the extracellular solution composed of saline solution, buffered with HEPES (mM): NaCl, 137; KCl, 4; CaCl2, 3,8; MgCl2, 1; HEPES, 10; Glucose, 10; pH 7.4. The […], 50; CsF, 90; MgCl2, 5; EGTA, 5; HEPES, 10; pH 7.2. The duration of exposure of each compound with cells expressing Nav 1.7 or Nav 1.8 was at least five minutes and the assays were performed at room temperature.
(§4) The measurements of the sodium currents of Nav 1.8 and Nav 1.7 were obtained using the voltage protocol described below.
(§5) A holding voltage of -100 mV was established followed by an inactivation voltage step at -40 mV for 8 seconds, followed by a step of -100 mV for 20 ms, followed by a 20 ms step for 10 mV for Nav 1.8 or 0 mV for Nav 1.7 (TP1A) before returning to the holding voltage of -100 mV.
(§6) The protocol was repeated at a frequency of 0.05 Hz and the amplitude of the current was quantified throughout the recording of the TP1A phase. The variation in the amplitude of the peak current was evaluated according to the formula described below, after exposing the cells expressing the channels to each concentration of the different compounds: % Block = (1−(ITP1A,molecule/ITP1A,basal)×100%, [formula] wherein ITP1A,basal and ITP1A,molecule represent the peaks of sodium current input into TP1A before exposure to the compound and in the presence of the compound, respectively.
(§7) Data were obtained by nonlinear regression (nonlinear least squares) with XLfit for Excel (Microsoft, Redmond, WA).
(§8) The compounds were tested in at least one assay to obtain the value of CI50. For compounds that were tested in two or more assays, the results are described as the means of the CI50 values.

The target of assay [2] is T2, human sodium channels Nav 1.7 (Homo sapiens, UniProt Q15858).
T2 construct: expressed in transfected cells
T2 sequence (Q15858 whole entry): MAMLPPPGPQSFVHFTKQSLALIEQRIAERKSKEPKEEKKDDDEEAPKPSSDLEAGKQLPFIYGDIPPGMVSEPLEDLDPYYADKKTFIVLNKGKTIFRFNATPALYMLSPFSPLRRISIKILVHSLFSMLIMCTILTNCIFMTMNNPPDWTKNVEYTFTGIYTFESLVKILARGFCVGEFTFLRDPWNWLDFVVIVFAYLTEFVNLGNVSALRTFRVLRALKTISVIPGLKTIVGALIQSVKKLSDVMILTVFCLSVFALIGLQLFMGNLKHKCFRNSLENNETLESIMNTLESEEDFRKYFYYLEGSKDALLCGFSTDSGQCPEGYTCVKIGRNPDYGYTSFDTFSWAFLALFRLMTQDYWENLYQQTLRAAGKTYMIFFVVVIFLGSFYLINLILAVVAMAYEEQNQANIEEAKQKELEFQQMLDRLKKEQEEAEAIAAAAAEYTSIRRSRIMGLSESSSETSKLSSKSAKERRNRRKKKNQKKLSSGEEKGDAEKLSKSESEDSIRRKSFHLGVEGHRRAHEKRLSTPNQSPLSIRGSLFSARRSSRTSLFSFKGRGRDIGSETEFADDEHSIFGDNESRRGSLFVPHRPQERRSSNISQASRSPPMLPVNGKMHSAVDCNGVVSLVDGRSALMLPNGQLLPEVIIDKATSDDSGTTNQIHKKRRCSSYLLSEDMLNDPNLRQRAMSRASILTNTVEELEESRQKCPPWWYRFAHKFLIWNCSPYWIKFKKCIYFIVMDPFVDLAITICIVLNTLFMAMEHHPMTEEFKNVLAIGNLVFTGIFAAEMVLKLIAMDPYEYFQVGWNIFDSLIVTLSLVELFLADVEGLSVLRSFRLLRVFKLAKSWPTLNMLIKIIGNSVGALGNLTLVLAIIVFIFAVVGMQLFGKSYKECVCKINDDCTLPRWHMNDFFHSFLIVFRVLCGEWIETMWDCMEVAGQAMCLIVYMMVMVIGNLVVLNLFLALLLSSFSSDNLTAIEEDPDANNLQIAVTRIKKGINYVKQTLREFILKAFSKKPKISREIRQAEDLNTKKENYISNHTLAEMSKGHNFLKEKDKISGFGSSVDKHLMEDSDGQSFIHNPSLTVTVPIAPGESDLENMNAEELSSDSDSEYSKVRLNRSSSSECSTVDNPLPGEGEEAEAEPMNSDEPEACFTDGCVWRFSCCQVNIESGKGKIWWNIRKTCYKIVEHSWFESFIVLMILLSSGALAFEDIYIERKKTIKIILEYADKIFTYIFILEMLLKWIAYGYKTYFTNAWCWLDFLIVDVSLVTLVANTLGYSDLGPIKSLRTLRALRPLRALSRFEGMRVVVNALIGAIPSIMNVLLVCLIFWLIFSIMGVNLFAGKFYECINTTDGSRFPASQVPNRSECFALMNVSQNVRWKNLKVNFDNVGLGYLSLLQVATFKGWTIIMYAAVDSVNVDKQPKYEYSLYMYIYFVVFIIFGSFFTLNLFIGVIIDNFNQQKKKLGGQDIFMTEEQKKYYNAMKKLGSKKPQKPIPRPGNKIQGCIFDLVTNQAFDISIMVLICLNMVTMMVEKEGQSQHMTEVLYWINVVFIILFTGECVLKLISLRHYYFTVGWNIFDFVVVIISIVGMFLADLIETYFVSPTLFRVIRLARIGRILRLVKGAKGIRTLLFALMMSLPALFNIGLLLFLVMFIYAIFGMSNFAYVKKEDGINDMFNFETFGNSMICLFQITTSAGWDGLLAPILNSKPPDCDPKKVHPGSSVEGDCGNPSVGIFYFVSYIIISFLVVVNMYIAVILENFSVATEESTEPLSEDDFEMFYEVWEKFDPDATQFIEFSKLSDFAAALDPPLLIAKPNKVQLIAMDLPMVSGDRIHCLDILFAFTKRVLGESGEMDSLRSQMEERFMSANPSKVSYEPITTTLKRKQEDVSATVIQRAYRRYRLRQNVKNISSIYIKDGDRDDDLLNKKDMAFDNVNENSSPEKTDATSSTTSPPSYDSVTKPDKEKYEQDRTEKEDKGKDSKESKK
Nature of the assay: Automated whole-cell voltage-clamp (ScreenPatch 384P) sodium current block, Nav 1.7. The assay is classed as cell-based. As to conditions: CHO cells stably expressing human Nav 1.7; inactivation step -40 mV 8 s, test step 0 mV (TP1A); eight concentrations; exposure at least five minutes; room temperature; read-out: Nav1.7 IC50. The method, then: as §1, §2, §3, §4, §5, §6, §7, §8

Broadly, the IC50 is the point on the concentration scale where inhibition reaches its midpoint.

T1 sequence (Q9Y5Y9 whole entry): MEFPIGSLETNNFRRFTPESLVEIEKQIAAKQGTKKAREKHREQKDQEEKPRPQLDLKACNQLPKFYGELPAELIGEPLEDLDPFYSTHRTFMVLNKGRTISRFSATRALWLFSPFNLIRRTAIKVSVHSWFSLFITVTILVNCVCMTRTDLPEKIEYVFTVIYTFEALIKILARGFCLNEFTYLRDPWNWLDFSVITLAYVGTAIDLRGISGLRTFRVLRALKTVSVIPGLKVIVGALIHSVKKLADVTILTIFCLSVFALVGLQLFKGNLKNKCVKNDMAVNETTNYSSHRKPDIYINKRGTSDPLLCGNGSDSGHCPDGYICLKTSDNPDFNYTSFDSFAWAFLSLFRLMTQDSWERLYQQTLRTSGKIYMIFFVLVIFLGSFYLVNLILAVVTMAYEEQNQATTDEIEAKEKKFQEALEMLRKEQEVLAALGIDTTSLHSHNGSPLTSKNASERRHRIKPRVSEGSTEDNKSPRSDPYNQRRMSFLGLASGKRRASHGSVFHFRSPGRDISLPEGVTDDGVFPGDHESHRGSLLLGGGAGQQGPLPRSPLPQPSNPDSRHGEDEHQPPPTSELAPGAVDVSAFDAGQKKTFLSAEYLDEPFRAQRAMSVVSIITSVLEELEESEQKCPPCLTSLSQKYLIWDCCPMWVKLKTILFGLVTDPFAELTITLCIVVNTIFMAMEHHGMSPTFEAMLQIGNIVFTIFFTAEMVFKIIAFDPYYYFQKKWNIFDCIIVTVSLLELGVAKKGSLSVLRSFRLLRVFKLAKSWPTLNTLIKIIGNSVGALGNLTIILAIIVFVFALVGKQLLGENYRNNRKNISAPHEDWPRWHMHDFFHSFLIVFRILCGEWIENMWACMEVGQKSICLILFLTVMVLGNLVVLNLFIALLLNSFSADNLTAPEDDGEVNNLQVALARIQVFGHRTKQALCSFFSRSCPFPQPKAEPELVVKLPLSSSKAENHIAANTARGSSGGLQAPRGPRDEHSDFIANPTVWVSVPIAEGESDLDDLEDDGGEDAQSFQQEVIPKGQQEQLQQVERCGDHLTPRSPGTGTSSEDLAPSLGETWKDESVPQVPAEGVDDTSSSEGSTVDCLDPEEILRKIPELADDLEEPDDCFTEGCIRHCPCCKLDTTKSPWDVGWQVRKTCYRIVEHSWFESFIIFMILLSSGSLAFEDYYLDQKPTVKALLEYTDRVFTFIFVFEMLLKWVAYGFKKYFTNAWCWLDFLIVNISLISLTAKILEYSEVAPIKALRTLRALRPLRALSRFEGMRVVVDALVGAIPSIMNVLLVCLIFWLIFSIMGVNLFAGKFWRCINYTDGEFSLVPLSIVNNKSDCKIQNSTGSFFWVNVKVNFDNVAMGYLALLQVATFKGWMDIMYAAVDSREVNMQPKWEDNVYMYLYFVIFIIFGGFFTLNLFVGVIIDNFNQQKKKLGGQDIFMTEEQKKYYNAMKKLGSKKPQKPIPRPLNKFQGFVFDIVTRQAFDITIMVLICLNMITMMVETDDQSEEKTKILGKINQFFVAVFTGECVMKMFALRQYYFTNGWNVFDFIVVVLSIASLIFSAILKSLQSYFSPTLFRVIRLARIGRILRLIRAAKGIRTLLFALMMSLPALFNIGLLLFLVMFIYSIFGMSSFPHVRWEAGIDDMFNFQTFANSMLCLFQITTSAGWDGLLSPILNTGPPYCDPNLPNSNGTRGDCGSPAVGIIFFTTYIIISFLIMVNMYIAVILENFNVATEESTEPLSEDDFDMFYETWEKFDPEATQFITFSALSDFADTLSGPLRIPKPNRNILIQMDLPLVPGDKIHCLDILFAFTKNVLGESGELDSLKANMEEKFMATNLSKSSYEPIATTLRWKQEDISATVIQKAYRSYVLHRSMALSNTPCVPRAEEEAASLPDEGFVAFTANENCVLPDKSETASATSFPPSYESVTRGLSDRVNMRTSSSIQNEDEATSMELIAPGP

As for `CC(O)c1cccc(/C=N/NC(=O)c2cncc(-c3ccc(OC(F)F)nc3)n2)c1` (centres unmarked) [Compound 109, (E)-6-(6-(difluoromethoxy)pyridine-3-yl)-N'-(3-(1-hydroxyethyl)benzylidene) pyrazine-2-carbohydrazide], the IC50 in assay [1] is 500 to 1000 nM; in assay [2], greater than 1000 nM.
For the compound `COc1cccc(/C=N/NC(=O)c2cncc(-c3ccc(OC(F)(F)F)nc3)n2)c1` [Compound 90, (E)-N'-(3-methoxybenzylidene)-6-(6-(trifluoromethoxy)pyridine-3-yl)pyrazine-2-carbohydrazide], the IC50 in assay [1] is less than 500 nM; in assay [2], greater than 1000 nM.
As for `CCOc1ccc(-c2cncc(C(=O)N/N=C/c3cc(OC)cnc3C)n2)cn1` [Compound 27, (E)-6-(6-ethoxypyridine-3-yl)-N'-((5-methoxy-2-methylpyridine-3-yl)methylene)pyrazine-2-carbohydrazide], the IC50 in assay [1] is less than 500 nM; in assay [2] it was greater than 1000 nM.
In the same order, the values of `CCOc1ccc(-c2cnc(O)c(C(=O)N/N=C/c3cc(OC)cnc3F)n2)cn1` [Compound 65, (E)-6-(6-ethoxypyridine-3-yl)-N'-((2-fluoro-5-methoxypyridine-3-yl)methylene)-3-hydroxypyrazine-2-carbohydrazide] are greater than 1000 nM and greater than 1000 nM.
In the same order, the values of `CCOc1ccc(-c2cncc(C(=O)N/N=C/c3cc(OC)cnc3F)n2)c(OC)n1` [Compound 154, (E)-6-(6-ethoxy-2-methoxypyridine-3-yl)-N'-((2-fluoro-5-methoxypyridine-3-yl)methylene)pyrazine-2-carbohydrazide] are less than 500 nM and less than 500 nM.
With `CCOc1ccc(-c2cncc(C(=O)N/N=C/c3cc(OC)ccc3C)n2)cn1` [Compound 17, (E)-6-(6-ethoxypyridine-3-yl)-N'-(5-methoxy-2-methylbenzylidene)pyrazine-2-carbohydrazide], the IC50 in assay [1] was less than 500 nM; in assay [2], 500 to 1000 nM.
In the same order, the values of `CCOc1ccc(-c2cncc(C(=O)N/N=C/c3cc(OC)ccn3)n2)cn1` [Compound 9, (E)-6-(6-ethoxypyridine-3-yl)-N'-((4-methoxypyridine-2-yl)methylene)pyrazine-2-carbohydrazide] are less than 500 nM and greater than 1000 nM.
In the same order, the values of `CCOc1ccc(-c2nc(C(=O)N/N=C/c3cc(OC)cnc3F)cnc2O)cn1` [Compound 67, (E)-6-(6-ethoxypyridine-3-yl)-N'-((2-fluoro-5-methoxypyridine-3-yl)methylene)-5-hydroxypyrazine-2-carbohydrazide] are greater than 1000 nM and greater than 1000 nM.
For `COc1cnc(F)c(/C=N/NC(=O)c2ccnc(-c3ccc(OC(F)F)nc3)n2)c1` [Compound 126, (E)-2-(6-(difluoromethoxy)pyridine-3-yl)-N'-((2-fluoro-5-methoxypyridine-3-yl)methylene) pyrimidine-4-carbohydrazide] the same measures were 500 to 1000 nM and greater than 1000 nM.
As to `COc1ccc(F)c(/C=N/NC(=O)c2cncc(-c3ccc(OCCC4CN(C)C4)nc3)n2)c1` [Compound 147, (E)-N'-(2-fluoro-5-methoxybenzylidene)-6-(6-(2-(1-methylazetidine-3-yl)ethoxy)pyridine-3-yl)pyrazine-2-carbohydrazide], the IC50 in assay [1] and in assay [2] was greater than 1000 nM throughout.
For the compound `CC(C)Oc1ccc(F)c(/C=N/NC(=O)c2cncc(-c3ccc(OC(F)(F)F)nc3)n2)c1` [Compound 92, (E)-N'-(2-fluoro-5-isopropoxybenzylidene)-6-(6-(trifluoromethoxy)pyridine-3-yl)pyrazine-2-carbohydrazide], the IC50 in assay [1] and in assay [2] was less than 500 nM each time.
`COc1ccc(F)c(/C=N/NC(=O)c2cncc(-c3ccc(OC4CNC4)nc3)n2)c1` [Compound 139, (E)-6-(6-(azetidin-3-yloxy)pyridine-3-yl)-N'-(2-fluoro-5-methoxybenzylidene) pyrazine-2-carbohydrazide]: the IC50 in assay [1] and in assay [2] was greater than 1000 nM in each case.
As for `COc1cc(/C=N/NC(=O)c2cncc(-c3ccc(OC4CC4)nc3)n2)c(F)cc1F` [Compound 78, (E)-6-(6-cyclopropoxypyridine-3-yl)-N'-(2,4-difluoro-5-methoxybenzylidene) pyrazine-2-carbohydrazide], the IC50 in assay [1] and in assay [2] was less than 500 nM each time.
In the case of `CCOc1ccc(-c2cncc(C(=O)N/N=C/c3cc(C(C)O)ccn3)n2)cn1` (centres unmarked) [Compound 31, (E)-6-(6-ethoxypyridine-3-yl)-N'-((4-(1-hydroxyethyl)pyridine-2-yl)methylene)pyrazine-2-carbohydrazide], the IC50 in assay [1] and in assay [2] was greater than 1000 nM each time.
In the case of `CCOc1cc(C)c(-c2cncc(C(=O)N/N=C/c3cc(OC)cnc3F)n2)cn1` [Compound 151, (E)-6-(6-ethoxy-4-methylpyridine-3-yl)-N'-((2-fluoro-5-methoxypyridine-3-yl)methylene)pyrazine-2-carbohydrazide], the IC50 was less than 500 nM in assay [1] and greater than 1000 nM in assay [2].
In the same order, the values of `CCOc1ccc(-c2ccnc(C(=O)N/N=C/c3cc(OC)cnc3F)n2)cn1` [Compound 73, (E)-4-(6-ethoxypyridine-3-yl)-N'-((2-fluoro-5-methoxypyridine-3-yl)methylene) pyrimidine-2-carbohydrazide] are 500 to 1000 nM and greater than 1000 nM.
In the same order, the values of `COc1cc(/C=N/NC(=O)c2cncc(-c3ccc(OC4CC4)nc3)n2)ccc1F` [Compound 81, (E)-6-(6-cyclopropoxypyridine-3-yl)-N'-(4-fluoro-3-methoxybenzylidene)pyrazine-2-carbohydrazide] are less than 500 nM and 500 to 1000 nM.
For `CCOc1ccc(-c2cnc(O)c(C(=O)N/N=C/c3cccn3C)n2)cn1` [Compound 70, (E)-6-(6-ethoxypyridine-3-yl)-3-hydroxy-N'-((1-methyl-1H-pyrrole-2-yl)methylene)pyrazine-2-carbohydrazide] the same measures were greater than 1000 nM and greater than 1000 nM.
As for `CCOc1ccc(-c2cnc(N)c(C(=O)N/N=C/c3cc(OC)ccc3F)n2)cn1` [Compound 64, (E)-3-amino-6-(6-ethoxypyridine-3-yl)-N'-(2-fluoro-5-methoxybenzylidene) pyrazine-2-carbohydrazide], the IC50 is 500 to 1000 nM in assay [1] and greater than 1000 nM in assay [2].
In the same order, the values of `CCOc1ccc(F)c(/C=N/NC(=O)c2cncc(-c3ccc(OC4CC4)nc3)n2)c1` [Compound 80, (E)-6-(6-cyclopropoxypyridine-3-yl)-N'-(5-ethoxy-2-fluorobenzylidene)pyrazine-2-carbohydrazide] are less than 500 nM and greater than 1000 nM.
In the same order, the values of `COc1cnc(F)c(/C=N/NC(=O)c2cncc(-c3ccc(OC(F)F)nc3)c2)c1` [Compound 128, (E)-6'-(difluoromethoxy)-N'-((2-fluoro-5-methoxypyridine-3-yl)methylene)-[3,3'-bipyridine]-5-carbohydrazide] are greater than 1000 nM and greater than 1000 nM.
For `COc1ccc(F)c(/C=N/NC(=O)c2cncc(-c3ccc(OC4CC4)nc3)n2)c1` [Compound 77, (E)-6-(6-cyclopropoxypyridine-3-yl)-N'-(2-fluoro-5-methoxybenzylidene)pyrazine-2-carbohydrazide] the same measures were less than 500 nM and less than 500 nM.
For `CCOc1ccc(-c2cncc(C(=O)N/N=C/c3cc(N(C)C)ccc3F)n2)cn1` [Compound 11, (E)-N'-(5-(dimethylamino)-2-fluorobenzylidene)-6-(6-ethoxypyridine-3-yl)pyrazine-2-carbohydrazide], the IC50 in assay [1] is less than 500 nM; in assay [2], greater than 1000 nM.
In the same order, the values of `CN(C)c1ccc(F)c(/C=N/NC(=O)c2cncc(-c3ccc(OC(F)(F)F)nc3)n2)c1` [Compound 93, (E)-N'-(5-(dimethylamino)-2-fluorobenzylidene)-6-(6-(trifluoromethoxy)pyridine-3-yl) pyrazine-2-carbohydrazide] are less than 500 nM and greater than 1000 nM.
In the same order, the values of `CCOc1ccc(-c2cncc(C(=O)N/N=C/c3cccc(C(C)O)c3)n2)cn1` (centres unmarked) [Compound 22, (E)-6-(6-ethoxypyridine-3-yl)-N'-(3-(1-hydroxyethyl)benzylidene)pyrazine-2-carbohydrazide] are 500 to 1000 nM and greater than 1000 nM.

Values taken from patent EP4660182A1, “NAV1.7- AND/OR NAV1.8-INHIBITING ARYL PYRIDINE COMPOUNDS, PROCESSES FOR THE PREPARATION THEREOF, COMPOSITIONS, USES, METHODS FOR TREATMENT USING SAME, AND KITS” (Eurofarma Laboratórios S.A., priority 2023, dated 2024).
